Cc1cc(N)n(-c2ccccc2)n1
solubility (mole fraction)
Settings	in 2-butanone	in acetonitrile	in ethanol	in isopropanol	in methanol	in n-propanol
283.15 K	0.0482	0.124	0.0766	0.056	0.0852	0.0705
285.65 K	0.0511	0.13	0.0811	0.0593	0.089	0.0749
288.15 K	0.0546	0.137	0.0854	0.0632	0.0938	0.0795
290.65 K	0.0581	0.144	0.0903	0.0672	0.0988	0.0839
293.15 K	0.0618	0.15	0.0955	0.0711	0.104	0.0889
295.65 K	0.0653	0.157	0.101	0.0755	0.109	0.0946
298.15 K	0.0694	0.164	0.107	0.0802	0.115	0.0997
300.65 K	0.0736	0.172	0.113	0.0851	0.121	0.105
303.15 K	0.0784	0.18	0.119	0.0906	0.127	0.112
305.65 K	0.0829	0.189	0.126	0.0957	0.134	0.118
308.15 K	0.0881	0.198	0.132	0.102	0.14	0.125
310.65 K	0.0931	0.206	0.139	0.108	0.147	0.132
313.15 K	0.0989	0.216	0.147	0.114	0.154	0.139
315.65 K	0.105	0.226	0.154	0.121	0.162	0.147
318.15 K	0.111	0.236	0.163	0.129	0.171	0.155
